Test results: the METLIN SMRT retention time set (Domingo-Almenara et al. 2019)

Experiment: gradient 5% acetonitrile 3 min, to 50% in 2 min, to 85% in 15 min, held 3 min, 100 µL/min
Conditions: column: Zorbax Extend-C18 2.1 x 50 mm; eluents: water / acetonitrile, 0.1% formic acid
In short: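 In both positive and negative ionization mode, a quadrupole time-of-flight mass spectrometer coupled to HPLC analyzed pure standards run in mixtures of ~100 molecules. The Zorbax Extend-C18 column (2.1 × 50 mm, 1.8 μm) was operated at 100 μL/min with water and acetonitrile, each containing 0.1% formic acid. The dead volume was 40 μL and the dwell volume 900 μL. Retention time came from adduct peaks that were computationally picked and individually inspected by hand.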

Compound	RP-LC retention time [s]
Cn1nc2c(c1NC(=O)Cc1ccc3c(c1)OCO3)CCC2	644
CCN1C(=O)COc2cc(-c3noc(C(=O)NCCc4ccc(S(N)(=O)=O)cc4)n3)ccc21	732
O=C(Nc1cc(F)ccc1F)N1CCCC1c1nc(-c2ccccc2)no1 (centres undefined)	1020
COc1ccc(OC)c(CNC(=O)Cc2csc3nc(-c4ccccc4)cn23)c1	779
COc1cc(NC(=O)c2cccc([N+](=O)[O-])c2)c(OC)cc1Cl	921
CCOC(=O)Cc1csc(NC(=O)CN2CC(c3nc(C4CC4)no3)C2)n1	575
CCCn1cc(CCNC(=O)Nc2cc(F)c(F)c(F)c2)c2cccnc21	866
CC(NC(=O)NC1CCCCC1)C(c1cccs1)N1CCN(C)CC1 (centres undefined)	573
O=S(=O)(c1ccc(-c2nnc(C3CC3)o2)o1)N1CCOCC1	717
COc1ccc(-c2cn3cccnc3n2)cc1NS(=O)(=O)c1ccc(Br)cc1	721
COCCN1C(=O)C(CC(=O)NCCCn2cccn2)=C2CCCCC21 (centres undefined)	634
CS(=O)(=O)Nc1ccc(C2(C(=O)NCc3ccc(F)cc3Cl)CCC2)cc1	847
O=C(NCc1ccc2c(c1)OCO2)C1CCN(C(=O)c2cc(-c3ccncc3)n[nH]2)CC1	579
COCCNC(=O)NC1CCN(c2nc3cccnc3n(Cc3ccccc3)c2=O)CC1	806
COc1ccc(Cl)cc1NC(=O)Cn1nc2c(Oc3ccccc3C)nccn2c1=O	930
CCc1cccc(NC(=O)Cn2c(=O)nc(N3CCCCC3)c3ccccc32)c1	754
CN(C)S(=O)(=O)Nc1ccccn1	630
Cc1ccc(-c2nc3ccccn3c2NC(=O)NCc2ccc(F)cc2)cc1	681
O=C(NC1CCN(c2cc(-c3cccs3)[nH]n2)C1)c1cccc(Br)c1 (centres undefined)	796
CCN1C(=O)C2(CCN(S(=O)(=O)Cc3ccccc3Cl)CC2)c2ccccc21	1030
Cc1cnc(C2CN(C3CCCCCC3)C2)n1Cc1ccccc1	588
CC(C)CCNC(=O)C1CCN(c2nccn3nc(-c4cccs4)cc23)CC1	1090
Cc1nc([C@@H]2CN(C(=O)CCc3c(C)n[nH]c3C)C[C@H]2C(N)=O)n[nH]1	523

Compound	RP-LC retention time [s]
CN1CCN(c2c(C(=O)c3ccccc3)cnc3cc4c(cc23)OCCO4)CC1	551
Cc1csc(-c2cc(S(=O)(=O)NCCN3CCCC3)cn2CC(=O)N2CCCCC2)n1	649
Cc1cc(C(=O)N2CCC(c3nc4ccccc4s3)CC2)n(C)n1	715
COc1cccc(Cn2nc3c(S(=O)(=O)N4CCN(c5ccc(F)cc5)CC4)cccn3c2=O)c1	997
CN1CCC(NC(=O)C2CCN(c3nc4ccc(-c5cccs5)nc4s3)CC2)CC1	654
CCN(CC)C(=O)Cn1nc2c(SCc3ccc(Cl)cc3)nccn2c1=O	930
CCC(C)NC(=O)c1ccc2c(c1)CCCN2S(C)(=O)=O (centres undefined)	754
CCOC(=O)c1nnc2c(-c3ccc(Cl)cc3)c(C)nn2c1N	872
Cc1cccc(-c2nc(CNC(=O)C(C)(C)C)no2)c1	826
COc1cc(Cl)ccc1C(=O)Nc1cc(S(=O)(=O)N2CCSCC2)sc1C	1090
COCCNC(=O)C1CCC(=O)N(c2ccc(OC)cc2)C1c1ccc(F)cc1 (centres undefined)	658
O=C(CSc1ncnc2c1nnn2-c1cccc(Cl)c1)NCC1CCCO1 (centres undefined)	820
Cc1oc2ccn(Cc3ccc(F)cc3)c(=O)c2c1C(=O)NCc1ccco1	975
O=C(Nc1ccc(Cl)cc1)N1CCC(n2cnc3cc(F)ccc3c2=O)CC1	848
O=C(NC1CCCCC1)c1cccc2c1CCN2C(=O)C1CC1	832
Cc1cc(N2CCN(C(=O)c3ccccc3)CC2)nc(N2CCOCC2)n1	612
CCc1cccc(NC(=O)C2CCCN(c3cc(=O)n(C)c(=O)n3C)C2)c1 (centres undefined)	794
O=C1NC2(CCN(C(=O)Nc3ccc(F)cc3)CC2)Oc2ccccc21	742
Cc1cc(N2CCOCC2)nc(N2CCN(C(=O)c3cccc(Br)c3)CC2)n1	636
O=C(NCc1ccccc1F)C1CCN(c2cnc3nccnc3c2)CC1	689
COc1ccc(-c2nc3ncccn3c2Nc2ccc(F)cc2)cc1	714
CN1CCCc2cc(C(CNC(=O)C(=O)NCc3ccccc3)N3CCCC3)ccc21 (centres undefined)	710
O=C(c1ccc(SCCN2CCCCC2)nc1)N1CCN(c2ncccn2)CC1	605

Compound	RP-LC retention time [s]
CCc1onc(C)c1C1CCCN1C(=O)c1c(F)cccc1F (centres undefined)	788
CCOc1ccc(NC(=O)Cn2nc3cc(C)nc(-c4ccccc4)n3c2=O)cc1	705
Cc1ccc(NC(=O)CCC2CCN(c3cc(NC4CC4)ncn3)CC2)c(C)c1	714
COC(=O)c1cccc(NC(=O)c2nc(C)oc2C)c1	840
COc1cccc(CNC(=O)C2(C)CCCN(C(=O)Nc3cccc(Br)c3)C2)c1 (centres undefined)	993
Cc1ccc2c(c1)N(S(C)(=O)=O)CCC(C(=O)Nc1ccc(C)c(Cl)c1)O2 (centres undefined)	1090
CCOC(=O)c1[nH]c(C)c(C(=O)C(C)N(C(=O)c2cccc(OC)c2)C2CC2)c1C (centres undefined)	879
Cc1cccc(-c2noc(-c3nnn(Cc4nc(-c5cccc(Cl)c5)oc4C)c3C)n2)c1	1000
O=C(Nc1ccc(Br)cc1F)Nc1c(-c2ccncc2)nc2ccccn12	652
O=C(NC1(c2nc(-c3cccnc3)no2)CCCCC1)c1n[nH]c2c1CCCC2	854
Cc1cc(C)n(Cc2nc(-c3ccc(NC(=O)CCc4ccccc4)cc3)oc2C)n1	944
Cc1cc(F)ccc1NC(=O)CN1C(=O)CCCc2cc(S(=O)(=O)N3CCCC3)ccc21	817
CCn1cnc(S(=O)(=O)N2CCC(C(=O)Nc3ccc(C)c(N(C)C)c3)CC2)c1	588
O=C(CC1CCN(C(=O)Nc2ccccc2F)CC1)N1CCCCC1	709
CN1CCCn2cc(S(=O)(=O)Nc3ccc(F)c(F)c3)cc2C1=O	690
O=C(Nc1cccc(C(F)(F)F)c1)C1CCN(c2cc(-n3ccnc3)ncn2)CC1	625
CC1CCCC(NC(=O)Cn2nc(Cc3ccncc3)c3ccccc3c2=O)C1C (centres undefined)	655
O=C(NC1CCN(Cc2ccccc2)CC1)C1CCCN(c2ncnc3c2oc2ccccc23)C1 (centres undefined)	604
CCCn1ccc2oc(C)c(C(=O)NCc3c(C)cc(C)cc3C)c2c1=O	1200
COc1ccc(-c2nnc(Cc3nc(-c4cccs4)no3)o2)cc1	913
CCCn1cc(S(=O)(=O)Nc2ccc(C)cc2F)c2cccnc21	936
Cc1ccc(NC(=O)N2CCCC(CCC(=O)NCCC3=CCCCC3)C2)cc1 (centres undefined)	947
Cc1cccc2nnc(N3CCN(C(=O)c4ccc(C(F)(F)F)s4)CC3)n12	751

Compound	RP-LC retention time [s]
COCc1nc(-c2ccc(OC3CN(Cc4cccs4)C3)cc2)no1	661
Cc1ccc2c(=O)c3c([nH]c2c1C)CCN(CC(=O)Nc1ccc(F)c(Cl)c1)C3	665
CS(=O)(=O)c1ccc(CC(=O)Nc2nnc(C3CCCO3)o2)cc1 (centres undefined)	578
CN(C(=O)Cn1nc(Cc2cccnc2)c2ccccc2c1=O)c1ccc(Br)cc1	679
O=C(NCCc1c[nH]c2ccccc12)c1csc(NS(=O)(=O)c2cccs2)n1	740
Cc1cccc(CNC(=O)C2(C)Cn3cnc(C(=O)N4CCOCC4)c3C(=O)N2C2CC2)c1 (centres undefined)	618
Cc1cc(S(=O)(=O)N2CCN(C3CCN(CCC(C)C)C3=O)CC2)ccc1Cl (centres undefined)	773
COc1ccccc1NC(=O)CN1CCC(c2nc(-c3cccs3)no2)CC1	682
O=C(CSc1ccc(F)cc1)Nc1ccc2c(c1)CC(=O)N2	646
Cc1cc(CN2CC(F)(F)C[C@H]2c2nnc(-c3ccccc3)o2)n(C)n1	806
COCCn1cc(CC(=O)Nc2cccc(SC)c2)c2cccnc21	787
Cc1cccc(CNC(=O)C2(C)Cn3cnc(C(=O)N(C)Cc4ccccc4)c3C(=O)N2C2CC2)c1 (centres undefined)	816
CCCc1noc(-c2ccc(-n3ncc(C(=O)NC(C)C)c3C)nc2)n1	970
COc1ccc(C)cc1NC(=O)CCCn1cccc1	876
CCCN1C(=O)C(CC(=O)NCC2CCCO2)Sc2ncccc21 (centres undefined)	663
CCc1ccc(-c2cc(C(=O)N3CCCN(c4ccc(=O)n(-c5ccc(C)cc5)n4)CC3)[nH]n2)cc1	873
CCc1ccccc1NS(=O)(=O)c1ccc(-c2nnc(C3CCC3)o2)o1	960
Cc1ccc(N2C=NS(=O)(=O)c3cccnc32)cc1C	840
Fc1cccc(-c2nc3ncccn3c2NC2CCCCC2)c1	834
COCCN1C(=O)c2ccccc2C(C(=O)NCCCN2C(C)CCCC2C)C1c1cccs1 (centres undefined)	633
